Tests used:
kidney cells = assay: MTS assay, number of viable cells; assay type: cell-based; settings: high concentrations of BQ788
VEGF = assay: Real-time RT-PCR of VEGF transcripts; assay type: cell-based, human; settings: BQ788 3 days
Method: Equal amounts of RNA from cells that were treated with BQ788 for 3 days were subjected to real-time RT-PCR analysis for the detection VEGF (A), HIF-1α (B) and Gravin (C) transcripts. Differences in expression levels are shown as x fold change and are statistically significant (p<0.05) unless a column in marked as non significant (N.S.). Sections of two representative tumors derived from a human melanoma cell line grown in nude mice and injected either with vehicle (D) or BQ788 (E) were stained with anti CD-31 to highlight blood vessels (brown staining, Lahav et al, 1999).
RNA was prepared from the different cell lines in different culture conditions using SV total RNA isolation kit (Promega) according to the manufacturer's protocol. For each sample RNA concentration was determined using the total RNA nano procedure of an Agilent bioanalyzer. A stock of SK-MEL-28 RNA aliquots was prepared containing 10, 20, 50, 100, 200, 500 and 1000 ng/12 μl for use as a standard curve and kept in −80° C. For the experimental unknown samples, a stock of 100 ng/12 μl RNA aliquots from each cell line and condition was prepared and stored at −80° C. For each real-time experiment one series of standard curve and unknown experimental series of aliquots was put on ice for use. Complementary DNA was prepared by adding to each tube 0.5 μl of random hexamers (Promega) and 1 μl of 10 mM dNTP mix (Promega) and incubating at 65° C. for 5 min. 4 μl of 5× M-MLV buffer (Promega), 1 μl of the RNase inhibitor RNasin (Promega) and 1 μl of M-MLV RT RNase H (Promega) were then added and the solution was incubated at 42° C. for 50 min followed by 15 min at 70° C. For real time reactions 15 μl of each cDNA sample were transferred to 3 wells in a 386 well plate. To each well we added 10 μl of TaqMan universal PCR master mix (Applied Biosystems), 1 μl of primers+probe mix (Assays-on-Demand from Applied Biosystems: EDNRB Hs00240747, BCL-2A1 Hs00187845, PARP-3 Hs00154151, VEGF Hs00173626, HIF-1α Hs00153153 and Gravin Hs00374507) and 4 μl of nuclease free water (Promega). Wells containing water instead of cDNA served as negative controls. The samples were subjected to 40 cycles of 15 sec at 95° C. and 1 min at 60° C. A standard curve of Ct versus RNA quantity was established and accordingly the Ct in the unknown samples was correlated to quantity of transcript.
Real-time PCR analysis confirmed that VEGF expression levels increased 18-fold in BQ788 treated LN-met cells and 65-fold in SK-MEL-28 cells, compared to only 2-fold in primary melanoma, and no change in the Cut-met line (FIG. 5). The changes in VEGF expression levels can be explained, at least in part, by changes in the expression levels of its known regulator hypoxia inducible factor-1 oc (HIF-1α) (Maxwell, et al., Oxygen sensors and angiogenesis, Semin. Cell Dev. Biol., 13:29-37 (2002)). […]

LN-met = assay: Apoptosis detection ELISA (histone-associated DNA fragments); assay type: cell-based, human; settings: BQ788 5 days
Method: (§1) Cells were plated in 24 wells plate in 500 μl medium and cultured for 5 days in the presence of BQ788 or solvent. A cell death detection ELISA PLUS kit (Roche) designed to reveal histone-180 bp DNA fragment complexes of nucleosomes was used to measure apoptosis. Briefly, cells floating in the supernatants and those attached to the dish were incubated in lysis buffer for 30 min. in room temperature (RT). After spinning for 10 min at 200 g, the DNA content of each sample was determined. 20 μl containing equal amounts of DNA were added to each well (3 wells per condition) coated with anti-histone antibody and incubated with additional 80 μl anti-DNA peroxidase immunogen under gentle shaking conditions for 2 h at RT. After washing and revelation with peroxidase substrate the samples OD were measured at 405 nm against substrate containing wells as blank.
(§2) Because BCL-2A1 and PARP are known regulators of apoptosis (Smulson, et al., Roles of poly(ADP-ribosyl)ation and PARP in apoptosis, DNA repair, genomic stability and functions of p53 and E2F-1, Adv. Enzyme Regul., 40:183-215 (2000); Vander Heiden, et al., Bcl-2 proteins: regulators of apoptosis or of mitochondrial homeostasis?, Nat. Cell Biol., 1:E209-E216, (1999)), we used an apoptosis detection ELISA that detects histone-associated DNA fragments to measure apoptotic cell death in the different cell lines treated with BQ788.

Cut-met line = assay: as above; assay type: cell-based, human; settings: BQ788 5 days
Method: as §1, §2

SK-MEL-28 = assay: as above; assay type: cell-based, human; settings: BQ788 5 days
Method: as §1, §2

primary melanoma cells = assay: as above; assay type: cell-based, human; settings: BQ788 5 days
Method: as §1, §2

In the case of `CCCC[C@@H](NC(=O)[C@@H](Cc1cn(C(=O)OC)c2ccccc12)NC(=O)[C@H](CC(C)(C)C)NC(=O)N1[C@H](C)CCC[C@@H]1C)C(=O)O` [BQ788, N-cis-2,6-dimethylpiperidinocarbonyl-L-γ-methylleucyl-D-1-methoxycarbonyltrptophanyl-D-norleucine], the “number of kidney cells” value (kidney cells) is reported as “not reduced”, the “VEGF expression level change” value (VEGF; Cut-met line) is reported as “no change” and the “increase in VEGF expression levels” value (VEGF; LN-met cells) is reported as 18 fold. The “increase in VEGF expression levels” value (VEGF; SK-MEL-28 cells) was 65 fold, the “increase in VEGF expression levels” value (VEGF; primary melanoma) was 2 fold and the apoptosis level (LN-met) was “intermediate level”. For the same compound, the apoptosis level (Cut-met line) was “slight increase”, the apoptosis level (SK-MEL-28) was “highest induction” and the apoptosis level (primary melanoma cells) was “did not display apoptosis”.
